# Test results published in patent US10363239B2, “Method for inhibiting growth of cancer cells” (Pain Therapeutics, Inc., priority 2013, dated 2019).
# Like-named read-outs stand apart in the source and are kept apart here.
# How the values were obtained:
# mu opiate receptor (MOR) = test: MOR agonist activity using [35S]GTPγS binding assay in striatal membranes; type: biochemical; conditions: for MOR agonist activity ([35S]GTPγS binding), FLNA-Binding Compound as Agonist 1 μM + BFNA: 1 μM compound + 1 μM β-funaltrexamine
# Outline: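 Striatal membranes (200 μg) were preincubated 5 min at 30 °C in HEPES pH 7.5 with 100 mM NaCl, 1 mM MgCl2 and 0.5 nM [35S]GTPγS, then 5 min more with 0.1–10 μM compound. Gαo was immunoprecipitated and bound radioactivity counted by scintillation.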
# [1] = target: FLNA pentapeptide of SEQ ID NO: 1 (Bn-VAKGL) (Homo sapiens, UniProt P21333); test: FITC-NLX-based FLNA screening assay (inhibition of FITC-naloxone binding to Bn-VAKGL on streptavidin plates); conditions: 10 nM FITC-NLX
# [2] = Series C-2, 0.1 μM compound, relative to DAMGO
# [3] = Series C-2, 0.1 μM compound, [35S]GTPγS binding to Gαo, striatal membranes
# [4] = Series C-2, 1 μM compound + 1 μM β-FNA
# [5] = Series C-2, 1 μM compound + β-FNA, relative to DAMGO + BFNA
# [6] = Series C-2, 1 μM compound, relative to DAMGO
# [7] = Series C-2, 1 μM compound, [35S]GTPγS binding to Gαo, striatal membranes
# [8] = FLNA-binding compound 0.01 μM, read-out: Percent Binding Inhibition
# [9] = FLNA-binding compound 0.1 μM, read-out: Percent Binding Inhibition
# [10] = FLNA-binding compound 1 μM, read-out: Percent Binding Inhibition
# [11] = 0.1 μM compound relative to DAMGO
# [12] = 1 μM compound + BFNA relative to DAMGO + BFNA
# [13] = 1 μM compound relative to DAMGO
# [14] = read-out: Percent Binding Inhibition, FLNA-binding compound 0.01 μM
# [15] = read-out: Percent Binding Inhibition, FLNA-binding compound 0.1 μM
# [16] = read-out: Percent Binding Inhibition, FLNA-binding compound 1 μM
# [17] = Series B, 0.1 μM compound, relative to DAMGO
# [18] = Series B, 0.1 μM compound, [35S]GTPγS binding to Gαo, striatal membranes
# [19] = Series B, 1 μM compound + 1 μM β-FNA
# [20] = Series B, 1 μM compound + β-FNA, relative to DAMGO + BFNA
# [21] = Series B, 1 μM compound, relative to DAMGO
# [22] = Series B, 1 μM compound, [35S]GTPγS binding to Gαo, striatal membranes
smiles,measurement,setting,value
CC(=O)c1ccc(S(=O)(=O)N2CCC3(CC2)NCCS3)cc1 [Compound C0060],% DAMGO (0.1 μM),mu opiate receptor (MOR); [2],114.8%
same,"MOR agonist activity, percent [35S]GTPγS binding at the stated compound concentration",mu opiate receptor (MOR); [3],166.5%
same,"MOR agonist activity, percent [35S]GTPγS binding at the stated compound concentration",mu opiate receptor (MOR); [4],143.9%
same,% DAMGO + BFNA,mu opiate receptor (MOR); [5],327.0%
same,% DAMGO (1 μM),mu opiate receptor (MOR); [6],93.9%
same,"MOR agonist activity, percent [35S]GTPγS binding at the stated compound concentration",mu opiate receptor (MOR); [7],218.9%
same,inhibition at 0.01 µM,[1]; [8],60.3%
same,inhibition at 0.1 µM,[1]; [9],64%
same,inhibition at 1 µM,[1]; [10],68%
COc1ccc(OCC(O)CN2CCc3cc4c(c(OC)c3C2)OCO4)cc1 (stereo not drawn) [Compound A0070],"MOR agonist activity ([35S]GTPγS binding), FLNA-Binding Compound as Agonist 0.1 μM",mu opiate receptor (MOR); 0.1 μM compound,128.6%
same,% DAMGO (0.1 μM),mu opiate receptor (MOR); [11],74.7%
same,"MOR agonist activity ([35S]GTPγS binding), FLNA-Binding Compound as Agonist 1 μM",mu opiate receptor (MOR); 1 μM compound,195.3%
same,"MOR agonist activity ([35S]GTPγS binding), FLNA-Binding Compound as Agonist 1 μM + BFNA",mu opiate receptor (MOR),80.3%
same,% DAMGO + BFNA,mu opiate receptor (MOR); [12],232.8%
same,% DAMGO (1 μM),mu opiate receptor (MOR); [13],88.9%
same,Percent Binding Inhibition,[1]; FLNA-binding compound 0.01 μM,32.9%
same,Percent Binding Inhibition,[1]; FLNA-binding compound 0.1 μM,39.1%
same,Percent Binding Inhibition,[1]; FLNA-binding compound 1 μM,41.7%
CC(=O)c1ccc(S(=O)(=O)N2CC(CN(C)C)OC23CCNCC3)cc1 (stereo not drawn) [Compound C0118M],% DAMGO (0.1 μM),mu opiate receptor (MOR); [2],87.8%
same,"MOR agonist activity, percent [35S]GTPγS binding at the stated compound concentration",mu opiate receptor (MOR); [3],166.2%
same,"MOR agonist activity, percent [35S]GTPγS binding at the stated compound concentration",mu opiate receptor (MOR); [4],79.2%
same,% DAMGO + BFNA,mu opiate receptor (MOR); [5],163.3%
same,% DAMGO (1 μM),mu opiate receptor (MOR); [6],105.4%
same,"MOR agonist activity, percent [35S]GTPγS binding at the stated compound concentration",mu opiate receptor (MOR); [7],261.5%
same,inhibition at 0.01 µM,[1]; [14],56.6%
same,inhibition at 0.1 µM,[1]; [15],61.4%
same,inhibition at 1 µM,[1]; [16],62.4%
COCOc1ccc(C(=O)CC2c3c(cc4c(c3OC)OCO4)CC[N+]2(C)C)cc1C (stereo not drawn) [Compound B0041],% DAMGO (0.1 μM),mu opiate receptor (MOR); [17],39.3%
same,"MOR agonist activity, percent [35S]GTPγS binding at the stated compound concentration",mu opiate receptor (MOR); [18],61.6%
same,"MOR agonist activity, percent [35S]GTPγS binding at the stated compound concentration",mu opiate receptor (MOR); [19],41.9%
same,% DAMGO + BFNA,mu opiate receptor (MOR); [20],128.5%
same,% DAMGO (1 μM),mu opiate receptor (MOR); [21],47.2%
same,"MOR agonist activity, percent [35S]GTPγS binding at the stated compound concentration",mu opiate receptor (MOR); [22],109.3%
same,inhibition at 0.01 µM,[1]; [14],44%
same,inhibition at 0.1 µM,[1]; [15],46.8%
same,inhibition at 1 µM,[1]; [16],52.8%
COc1c2c(cc3c1OCO3)CCN(CC(O)COC1CC(C)CCC1C(C)C)C2 (stereo not drawn) [Compound A0061],"MOR agonist activity ([35S]GTPγS binding), FLNA-Binding Compound as Agonist 0.1 μM",mu opiate receptor (MOR); 0.1 μM compound,110.3%
same,% DAMGO (0.1 μM),mu opiate receptor (MOR); [11],70.7%
same,"MOR agonist activity ([35S]GTPγS binding), FLNA-Binding Compound as Agonist 1 μM",mu opiate receptor (MOR); 1 μM compound,197.1%
same,"MOR agonist activity ([35S]GTPγS binding), FLNA-Binding Compound as Agonist 1 μM + BFNA",mu opiate receptor (MOR),10.7%
same,% DAMGO + BFNA,mu opiate receptor (MOR); [12],26.8%
same,% DAMGO (1 μM),mu opiate receptor (MOR); [13],85.5%
same,inhibition at 0.01 µM,[1]; [8],27.5%
same,inhibition at 0.1 µM,[1]; [9],38.9%
same,inhibition at 1 µM,[1]; [10],42.8%
COc1c2c(cc3c1C(CC(=O)c1ccncc1)[N+](C)(C)CC3)OCO2 (stereo not drawn) [Compound B0005],% DAMGO (0.1 μM),mu opiate receptor (MOR); [17],50.5%
same,"MOR agonist activity, percent [35S]GTPγS binding at the stated compound concentration",mu opiate receptor (MOR); [18],89.2%
same,"MOR agonist activity, percent [35S]GTPγS binding at the stated compound concentration",mu opiate receptor (MOR); [19],45.1%
same,% DAMGO + BFNA,mu opiate receptor (MOR); [20],68.6%
same,% DAMGO (1 μM),mu opiate receptor (MOR); [21],42.6%
same,"MOR agonist activity, percent [35S]GTPγS binding at the stated compound concentration",mu opiate receptor (MOR); [22],110.4%
same,inhibition at 0.01 µM,[1]; [14],31.8%
same,inhibition at 0.1 µM,[1]; [15],34.8%
same,inhibition at 1 µM,[1]; [16],41.7%
COc1ccc(OCC(O)CN2CCCc3ccccc32)cc1 (stereo not drawn) [Compound A0067],"MOR agonist activity ([35S]GTPγS binding), FLNA-Binding Compound as Agonist 0.1 μM",mu opiate receptor (MOR); 0.1 μM compound,170.8%
same,% DAMGO (0.1 μM),mu opiate receptor (MOR); [11],99.2%
same,"MOR agonist activity ([35S]GTPγS binding), FLNA-Binding Compound as Agonist 1 μM",mu opiate receptor (MOR); 1 μM compound,254.4%
same,"MOR agonist activity ([35S]GTPγS binding), FLNA-Binding Compound as Agonist 1 μM + BFNA",mu opiate receptor (MOR),33.9%
same,% DAMGO + BFNA,mu opiate receptor (MOR); [12],98.3%
same,% DAMGO (1 μM),mu opiate receptor (MOR); [13],115.8%
same,Percent Binding Inhibition,[1]; FLNA-binding compound 0.01 μM,32.7%
same,Percent Binding Inhibition,[1]; FLNA-binding compound 0.1 μM,39.1%
same,Percent Binding Inhibition,[1]; FLNA-binding compound 1 μM,44.3%
